The record followed here is PubChem BioAssay AID248 (DTP/NCI, 2004).

In the experiment the test system is L1210 leukemia ip in BDF1 mice, survival T/C. The experiment in a line: NCI In Vivo Anticancer Drug Screen. Data for tumor model L1210 Leukemia (intraperitoneal) in B6D2F1 (BDF1) mice. The following applies: endpoint: mean survival time, higher = longer survival. The method, boiled down:
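Each compound was tested against a transplantable tumor grown in mice. The endpoint was survival, with treated animals benchmarked against vehicle controls as a simple ratio.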

Setting [1] is: dose: 100.0 mg/kg/injection, schedule: Q01DX009 (ip), vehicle: saline with Tween-80.
Where [2] appears, read: dose: 200.0 mg/kg/injection, schedule: Q01DX009 (ip), vehicle: saline with Tween-80.
[3] abbreviates: dose: 200.0 mg/kg/injection, schedule: Q01DX001 (ip), vehicle: saline with Tween-80.
Setting [4] is: dose: 400.0 mg/kg/injection, schedule: Q01DX001 (ip), vehicle: saline with Tween-80.
Setting [5] is: dose: 100.0 mg/kg/injection, schedule: Q01DX001 (ip), vehicle: Klucel (hydroxypropylcellulose) (HPC).
The mark [6] stands for this setting: dose: 100.0 mg/kg/injection, schedule: Q04DX003 (ip), vehicle: Klucel (hydroxypropylcellulose) (HPC).
Where [7] appears, read: dose: 200.0 mg/kg/injection, schedule: Q01DX001 (ip), vehicle: Klucel (hydroxypropylcellulose) (HPC).
Setting [8] is: dose: 200.0 mg/kg/injection, schedule: Q04DX003 (ip), vehicle: Klucel (hydroxypropylcellulose) (HPC).
[9] abbreviates: dose: 400.0 mg/kg/injection, schedule: Q01DX001 (ip), vehicle: Klucel (hydroxypropylcellulose) (HPC).

Values joined by “and” are separate entries in the source; they are usually repeats but may differ in a detail not shown here. Identical values can stand only once. Inconclusive results and toxic doses are left out.

As for `C1CCC2C(C1)CCC1CCCCC12` (stereo not drawn), the T/C was 100 % of control (dose: 62.5 mg/kg/injection, schedule: Q01DX001 (ip), vehicle: carboxymethylcellulose (CMC)); 100 % of control (dose: 125.0 mg/kg/injection, schedule: Q01DX001 (ip), vehicle: carboxymethylcellulose (CMC)); 96 % of control (dose: 250.0 mg/kg/injection, schedule: Q01DX001 (ip), vehicle: carboxymethylcellulose (CMC)); 102 % of control (dose: 500.0 mg/kg/injection, schedule: Q01DX001 (ip), vehicle: carboxymethylcellulose (CMC)).
Regarding `Oc1ccc(C/C=C/c2ccccc2)cc1`, the T/C was 98 % of control under setting [1]; 96 % of control under setting [2]; 102 % of control (dose: 400.0 mg/kg/injection, schedule: Q01DX009 (ip), vehicle: saline with Tween-80).
As to `COc1cc(N=Nc2ccccc2OC)ccc1N`, the T/C (dose: 50.0 mg/kg/injection, schedule: Q01DX001 (ip), vehicle: carboxymethylcellulose (CMC)) is 97 % of control; the T/C (dose: 100.0 mg/kg/injection, schedule: Q01DX001 (ip), vehicle: carboxymethylcellulose (CMC)) was 109 % of control; the T/C (dose: 200.0 mg/kg/injection, schedule: Q01DX001 (ip), vehicle: carboxymethylcellulose (CMC)) was 106 % of control; the T/C (dose: 400.0 mg/kg/injection, schedule: Q01DX001 (ip), vehicle: carboxymethylcellulose (CMC)) was 101 % of control.
Consider `O=C(O)c1[nH]c(=O)[nH]c(=O)c1F.[Ga]`, for which the T/C (dose: 50.0 mg/kg/injection, schedule: Q01DX009 (ip), vehicle: saline with Tween-80) is 109 % of control; the T/C under setting [1] is 91 % of control; the T/C (dose: 100.0 mg/kg/injection, schedule: Q04DX003 (ip), vehicle: saline with Tween-80) is 101 % of control; the T/C (dose: 177.0 mg/kg/injection, schedule: Q01DX001 (ip), vehicle: saline with Tween-80) was 160 % of control; the T/C under setting [3] was 174 % of control; the T/C under setting [2] was 99 % of control. Besides, the T/C was 102 % of control (dose: 200.0 mg/kg/injection, schedule: Q04DX003 (ip), vehicle: saline with Tween-80) and 197 % of control under setting [4].
As for `O=C(Nc1cccc(Cl)c1)Oc1ccc(Cl)cc1Cl`, the T/C was 96 % of control (dose: 100.0 mg/kg/injection, schedule: Q04DX002 (ip), vehicle: saline with Tween-80) and 100 % of control (dose: 200.0 mg/kg/injection, schedule: Q04DX002 (ip), vehicle: saline with Tween-80).
`CCOc1ccccc1/C=C(\C#N)c1cccc(Cl)c1`: the T/C by setting is: (dose: 100.0 mg/kg/injection, schedule: Q01DX009 (ip), vehicle: other) 87 % of control; (dose: 200.0 mg/kg/injection, schedule: Q01DX009 (ip), vehicle: other) 88 % of control.
Regarding `NC(=O)n1ccc(CC(O)(C(F)(F)F)C(F)(F)F)n1`, the T/C is, setting by setting: (dose: 100.0 mg/kg/injection, schedule: Q01DX001 (ip), vehicle: saline with Tween-80) 96 % of control; under setting [3], 96 % of control; under setting [4], 96 % of control.
In the case of `C=CCN(CC=C)/N=N/c1nc[nH]c1C(N)=O`, the T/C by setting is: (dose: 37.5 mg/kg/injection, schedule: Q01DX009 (ip), vehicle: saline with Tween-80) 104 % of control; (dose: 75.0 mg/kg/injection, schedule: Q01DX009 (ip), vehicle: saline with Tween-80) 100 % of control; (dose: 150.0 mg/kg/injection, schedule: Q01DX009 (ip), vehicle: saline with Tween-80) 98 % of control.
With `C=C(Br)CNC1CCC(CCCC)CC1` (stereo not drawn), the T/C (dose: 50.0 mg/kg/injection, schedule: Q04DX003 (ip), vehicle: Klucel (hydroxypropylcellulose) (HPC)) was 106 % of control; the T/C under setting [5] is 98 % of control; the T/C under setting [6] is 102 % of control; the T/C under setting [7] was 98 % of control; the T/C under setting [8] was 93 % of control; the T/C under setting [9] was 98 % of control.
Take `CCC(CC)N1CCCS1(=O)=O`: the T/C was 93 % of control (dose: 100.0 mg/kg/injection, schedule: Q01DX009 (ip), vehicle: saline); 102 % of control (dose: 200.0 mg/kg/injection, schedule: Q01DX009 (ip), vehicle: saline); 96 % of control (dose: 400.0 mg/kg/injection, schedule: Q01DX009 (ip), vehicle: saline).
`COC(=O)C(N)Cc1ccc(O)c(N(CCCl)CCCl)c1` (stereo not drawn): the T/C (dose: 0.01 mg/kg/injection, schedule: Q01DX009 (ip), vehicle: saline) was 116 % of control; the T/C (dose: 0.25 mg/kg/injection, schedule: Q01DX009 (ip), vehicle: saline) was 205 % of control; the T/C (dose: 0.5 mg/kg/injection, schedule: Q01DX009 (ip), vehicle: saline) is 204 % of control; the T/C (dose: 1.0 mg/kg/injection, schedule: Q01DX009 (ip), vehicle: saline) is 194 % of control; the T/C (dose: 2.5 mg/kg/injection, schedule: Q01DX001 (ip), vehicle: saline) was 116 % of control; the T/C (dose: 5.0 mg/kg/injection, schedule: Q01DX001 (ip), vehicle: saline) is 168 % of control. Also, for the setting “dose: 10.0 mg/kg/injection, schedule: Q01DX001 (ip), vehicle: saline”, the T/C is 213 % of control.
For `Clc1ccc(Cl)c(-c2csc(-c3ccncc3)n2)c1`, the T/C was 116 % of control (dose: 25.0 mg/kg/injection, schedule: Q01DX009 (ip), vehicle: Klucel (hydroxypropylcellulose) (HPC)); 100 % of control (dose: 50.0 mg/kg/injection, schedule: Q01DX009 (ip), vehicle: Klucel (hydroxypropylcellulose) (HPC)); 97 % of control and 103 % of control (dose: 100.0 mg/kg/injection, schedule: Q01DX009 (ip), vehicle: Klucel (hydroxypropylcellulose) (HPC)).
Consider `CCCCS(=O)(=O)CCCCCCl`, for which the T/C was 105 % of control (dose: 100.0 mg/kg/injection, schedule: Q01DX001 (ip), vehicle: saline); 104 % of control (dose: 200.0 mg/kg/injection, schedule: Q01DX001 (ip), vehicle: saline); 104 % of control (dose: 400.0 mg/kg/injection, schedule: Q01DX001 (ip), vehicle: saline).
On to `O=C1OC(=O)C2C(c3ccccc3)C=C(Cl)C(CCCl)C12` (stereo not drawn), for which the T/C reads like this: under setting [5], 101 % of control; under setting [7], 97 % of control; under setting [9], 95 % of control.
For `CCOC(=O)c1ncn(C2OC(CO)C(O)C2O)c1N` (stereo not drawn), the T/C is 90 % of control (dose: 12.5 mg/kg/injection, schedule: Q01DX005 (ip), vehicle: saline with Tween-80); 100 % of control (dose: 25.0 mg/kg/injection, schedule: Q01DX005 (ip), vehicle: saline with Tween-80); 90 % of control (dose: 50.0 mg/kg/injection, schedule: Q01DX005 (ip), vehicle: saline with Tween-80); 92 % of control (dose: 100.0 mg/kg/injection, schedule: Q01DX005 (ip), vehicle: saline with Tween-80); 93 % of control (dose: 200.0 mg/kg/injection, schedule: Q01DX005 (ip), vehicle: saline with Tween-80).
Consider `CCCCCCC1CCC(N)CC1` (stereo not drawn), for which the T/C (dose: 6.25 mg/kg/injection, schedule: Q04DX002 (ip), vehicle: saline with Tween-80) was 95 % of control; the T/C (dose: 12.5 mg/kg/injection, schedule: Q04DX002 (ip), vehicle: saline with Tween-80) was 95 % of control; the T/C (dose: 25.0 mg/kg/injection, schedule: Q04DX002 (ip), vehicle: saline with Tween-80) is 113 % of control.
In the case of `C=CC[N+](CC=C)(CC=C)CC[N+](CC=C)(CC=C)CC=C`, the T/C reads like this: (dose: 6.25 mg/kg/injection, schedule: Q01DX009 (ip), vehicle: water) 109 % of control; (dose: 12.5 mg/kg/injection, schedule: Q01DX009 (ip), vehicle: water) 111 % of control; (dose: 25.0 mg/kg/injection, schedule: Q01DX009 (ip), vehicle: water) 96 % of control and 90 % of control; (dose: 50.0 mg/kg/injection, schedule: Q01DX009 (ip), vehicle: water) 106 % of control and 87 % of control and 89 % of control; (dose: 100.0 mg/kg/injection, schedule: Q01DX009 (ip), vehicle: water) 100 % of control.
As to `Cc1cc(S(=O)(=O)F)ccc1NC(=O)NCc1ccc(N2C(N)=NC(N)=NC2(C)C)cc1`, the T/C runs as follows: under setting [6], 108 % of control; under setting [8], 100 % of control; (dose: 400.0 mg/kg/injection, schedule: Q04DX003 (ip), vehicle: Klucel (hydroxypropylcellulose) (HPC)) 106 % of control.
For `CS(=O)(=O)OCC1(c2ccccc2)CCCCC1`, the T/C runs as follows: (dose: 100.0 mg/kg/injection, schedule: Q01DX001 (sc), vehicle: olive oil, sesame oil, peanut oil) 101 % of control; (dose: 200.0 mg/kg/injection, schedule: Q01DX001 (sc), vehicle: olive oil, sesame oil, peanut oil) 103 % of control; (dose: 400.0 mg/kg/injection, schedule: Q01DX001 (sc), vehicle: olive oil, sesame oil, peanut oil) 108 % of control.
